System: patients with advanced gastric cancer and cholangiocarcinoma
Test: Safety assessments
Type: in vivo, human
Settings: 140 mg once daily

## CNC(=O)n1ccc2cc(Oc3ccnc(NC(=O)c4ccc(C5CCN(CCO)CC5)cc4)c3)c(OCCOC)cc21 [Tasurgratinib]
  SAEs considered related to the study drug: none and No treatment‐related SAEs
  dose reductions attributed to AST increased: 1 n
  dose reductions attributed to PPE syndrome: 2 n
  dose reductions attributed to decreased appetite: 1 n
  dose reductions attributed to paronychia: 2 n
  dose reductions attributed to stomatitis: 1 n
  drug‐related deaths: no drug‐related deaths
  severity of all hyperphosphatemia events: grade 1 or 2
N = 16
  ALT increased, TEAEs All grades: 3 (18.8) n (%)
  ALT increased, TEAEs Grade ≥3: 1 (6.3) n (%)
  ALT increased, TRAEs All grades: 2 (12.5) n (%)
  ALT increased, TRAEs Grade ≥3: 0 (0.0) n (%)
  AST increased, TEAEs All grades: 4 (25.0) n (%)
  AST increased, TEAEs Grade ≥3: 2 (12.5) n (%)
  AST increased, TRAEs All grades: 3 (18.8) n (%)
  AST increased, TRAEs Grade ≥3: 1 (6.3) n (%)
  Abdominal distension, TEAEs All grades: 4 (25.0) n (%)
  Abdominal distension, TEAEs Grade ≥3: 1 (6.3) n (%)
  Abdominal distension, TRAEs All grades: 0 (0.0) n (%)
  Abdominal distension, TRAEs Grade ≥3: 0 (0.0) n (%)
  Abdominal pain, TEAEs All grades: 2 (12.5) n (%)
  Abdominal pain, TEAEs Grade ≥3: 0 (0.0) n (%)
  Abdominal pain, TRAEs All grades: 0 (0.0) n (%)
  Abdominal pain, TRAEs Grade ≥3: 0 (0.0) n (%)
  All AEs, TEAEs All grades: 16 (100.0) n (%)
  All AEs, TEAEs Grade ≥3: 11 (68.8) n (%)
  All AEs, TRAEs All grades: 16 (100.0) n (%)
  All AEs, TRAEs Grade ≥3: 2 (12.5) n (%)
  Anemia, TEAEs All grades: 4 (25.0) n (%)
  Anemia, TEAEs Grade ≥3: 2 (12.5) n (%)
  Anemia, TRAEs All grades: 1 (6.3) n (%)
  Anemia, TRAEs Grade ≥3: 0 (0.0) n (%)
  Blood alkaline phosphatase increased, TEAEs All grades: 3 (18.8) n (%)
  Blood alkaline phosphatase increased, TEAEs Grade ≥3: 2 (12.5) n (%)
  Blood alkaline phosphatase increased, TRAEs All grades: 1 (6.3) n (%)
  Blood alkaline phosphatase increased, TRAEs Grade ≥3: 0 (0.0) n (%)
  Blood creatinine increased, TEAEs All grades: 5 (31.3) n (%)
  Blood creatinine increased, TEAEs Grade ≥3: 0 (0.0) n (%)
  Blood creatinine increased, TRAEs All grades: 3 (18.8) n (%)
  Blood creatinine increased, TRAEs Grade ≥3: 0 (0.0) n (%)
  Cancer pain, TEAEs All grades: 2 (12.5) n (%)
  Cancer pain, TEAEs Grade ≥3: 0 (0.0) n (%)
  Cancer pain, TRAEs All grades: 0 (0.0) n (%)
  Cancer pain, TRAEs Grade ≥3: 0 (0.0) n (%)
  Constipation, TEAEs All grades: 3 (18.8) n (%)
  Constipation, TEAEs Grade ≥3: 0 (0.0) n (%)
  Constipation, TRAEs All grades: 1 (6.3) n (%)
  Constipation, TRAEs Grade ≥3: 0 (0.0) n (%)
  Decreased appetite, TEAEs All grades: 7 (43.8) n (%)
  Decreased appetite, TEAEs Grade ≥3: 2 (12.5) n (%)
  Decreased appetite, TRAEs All grades: 2 (12.5) n (%)
  Decreased appetite, TRAEs Grade ≥3: 0 (0.0) n (%)
  Diarrhea, TEAEs All grades: 6 (37.5) n (%)
  Diarrhea, TEAEs Grade ≥3: 1 (6.3) n (%)
  Diarrhea, TRAEs All grades: 4 (25.0) n (%)
  Diarrhea, TRAEs Grade ≥3: 0 (0.0) n (%)
  Dry eye, TEAEs All grades: 2 (12.5) n (%)
  Dry eye, TEAEs Grade ≥3: 0 (0.0) n (%)
  Dry eye, TRAEs All grades: 1 (6.3) n (%)
  Dry eye, TRAEs Grade ≥3: 0 (0.0) n (%)
  Dry mouth, TEAEs All grades: 3 (18.8) n (%)
  Dry mouth, TEAEs Grade ≥3: 0 (0.0) n (%)
  Dry mouth, TRAEs All grades: 3 (18.8) n (%)
  Dry mouth, TRAEs Grade ≥3: 0 (0.0) n (%)
  Dry skin, TEAEs All grades: 3 (18.8) n (%)
  Dry skin, TEAEs Grade ≥3: 0 (0.0) n (%)
  Dry skin, TRAEs All grades: 3 (18.8) n (%)
  Dry skin, TRAEs Grade ≥3: 0 (0.0) n (%)
  Dysgeusia, TEAEs All grades: 6 (37.5) n (%)
  Dysgeusia, TEAEs Grade ≥3: 0 (0.0) n (%)
  Dysgeusia, TRAEs All grades: 5 (31.3) n (%)
  Dysgeusia, TRAEs Grade ≥3: 0 (0.0) n (%)
  Epistaxis, TEAEs All grades: 2 (12.5) n (%)
  Epistaxis, TEAEs Grade ≥3: 0 (0.0) n (%)
  Epistaxis, TRAEs All grades: 1 (6.3) n (%)
  Epistaxis, TRAEs Grade ≥3: 0 (0.0) n (%)
  Headache, TEAEs All grades: 2 (12.5) n (%)
  Headache, TEAEs Grade ≥3: 1 (6.3) n (%)
  Headache, TRAEs All grades: 0 (0.0) n (%)
  Headache, TRAEs Grade ≥3: 0 (0.0) n (%)
  Hyperphosphatemia, TEAEs All grades: 16 (100.0) n (%)
  Hyperphosphatemia, TEAEs Grade ≥3: 0 (0.0) n (%)
  Hyperphosphatemia, TRAEs All grades: 16 (100.0) n (%)
  Hyperphosphatemia, TRAEs Grade ≥3: 0 (0.0) n (%)
  Hypoalbuminemia, TEAEs All grades: 3 (18.8) n (%)
  Hypoalbuminemia, TEAEs Grade ≥3: 1 (6.3) n (%)
  Hypoalbuminemia, TRAEs All grades: 0 (0.0) n (%)
  Hypoalbuminemia, TRAEs Grade ≥3: 0 (0.0) n (%)
  Insomnia, TEAEs All grades: 2 (12.5) n (%)
  Insomnia, TEAEs Grade ≥3: 0 (0.0) n (%)
  Insomnia, TRAEs All grades: 0 (0.0) n (%)
  Insomnia, TRAEs Grade ≥3: 0 (0.0) n (%)
  Lipase increased, TEAEs All grades: 2 (12.5) n (%)
  Lipase increased, TEAEs Grade ≥3: 2 (12.5) n (%)
  Lipase increased, TRAEs All grades: 1 (6.3) n (%)
  Lipase increased, TRAEs Grade ≥3: 1 (6.3) n (%)
